# Values of other authors as cited in patent US11654095B2, “Method for dyeing keratinous material, comprising the use of an organosilicon compound, a chromophoric compound, a modified fatty acid ester and a sealing reagent II” (Henkel AG & Co. KGaA, priority 2019, dated 2023).
# Like-named read-outs stand apart in the source and are kept apart here.
structure (smiles),measurement,setting,value
"Nc1cc(S(=O)(=O)[O-])cc2cc(S(=O)(=O)[O-])c(N=Nc3ccccc3)c(O)c12.[Na+].[Na+] [Acid Red 33, disodium salt of 5-amino-4-hydroxy-3-(phenylazo)-naphthalene-2,7-disulphonate]",solubility in water,25° C.,2500 µg/mL
"O=S(=O)([O-])c1ccc(N=Nc2c(O)ccc3ccccc23)cc1.[Na+] [Acid Orange 7, sodium salt of 4-[(2-hydroxy-1-naphthyl)azo]benzene sulphonate]",solubility in water,25° C.,more than 7 g/L
"O=C([O-])C1=NN(c2ccc(S(=O)(=O)[O-])cc2)C(=O)C1N=Nc1ccc(S(=O)(=O)[O-])cc1.[Na+].[Na+].[Na+] (stereo not shown) [Acid Yellow 23, trisodium salt of 4,5-dihydro-5-oxo-1-(4-sulfophenyl)-4-((4-sulfophenyl)azo)-1H-pyrazole-3-carboxylic acid]",solubility in water,water at 25° C.,highly soluble
"O=C([O-])c1c(Cl)c(Cl)c(Cl)c(Cl)c1-c1c2c(Br)cc(=O)c(Br)c-2oc2c(Br)c(O)cc(Br)c12.O=C([O-])c1c(Cl)c(Cl)c(Cl)c(Cl)c1-c1c2c(Br)cc(=O)c(Br)c-2oc2c(Br)c(O)cc(Br)c12.[Na+].[Na+] [Acid Red 92, disodium salt of 3,4,5,6-tetrachloro-2-(1,4,5,8-tetrabromo-6-hydroxy-3-oxoxanthen-9-yl)benzoic acid]",solubility in water,25° C.,greater than 10 g/L
